{"source": "patent US20240216421A1", "about": "“COMBINATION PRODUCT AND METHODS FOR PREVENTING THE EMERGENCE OF ANTIBIOTIC-RESISTANT BACTERIA UNDER ANTIBIOTIC TREATMENT” (DIOTHERIS, priority 2021, published 2024)", "key": {"[1]": {"system": "C. aurimucosum Rif^R mutant", "test": "Rifampicin MIC, agar dilution method", "format": "cell-based", "settings": "Corynebacterium aurimucosum, rifampicin resistance breakpoint MIC >16 μg/mL", "protocol": "Spontaneous rifampicin-resistant colonies were obtained in one step by plating ≈10^9 CFU of C. aurimucosum CIP 102616 on blood agar plates supplemented with 20 μg/mL of rifampicin. Five clones were re-isolated on rifampicin-containing plates, and one of them was selected (C. aurimucosum CIP 102616 Rif^R mutant)."}, "[2]": {"system": "S. aureus rifampicin-resistant mutants", "test": "Rifampicin MIC of bacteria forming colonies on negative-control plates, agar dilution method", "format": "cell-based, Staphylococcus aureus", "protocol": "A 5 McFarland suspension of CIP 102616 Rif^R was prepared from a 48 h-culture on Columbia 5% sheep blood agar at 35+/−2° C., and 300 μl of this suspension (≈10^7 CFU) was inoculated by swabbing on a 90 mm diameter blood agar plate containing 20 μg/mL of rifampicin; 300 μl of saline was inoculated as “negative control” (rifampicin-containing agar plate not inoculated with CIP 102616 Rif^R). Materials and methods were otherwise as described in Example 2, except that one 40 μl drop (≈10^7 CFU) was spread out on each filter. Rifampicin MIC values of bacteria forming rifampicin-resistant colonies on “negative-control” plates were determined using the agar dilution method."}, "[3]": {"system": "S. epidermidis Rif^R mutant", "test": "Rifampicin MIC, agar dilution method", "format": "cell-based", "settings": "Staphylococcus epidermidis, rifampicin resistance breakpoint MIC >16 μg/mL"}, "S. aureus ATCC 29213 [4]": {"system": "S. aureus ATCC 29213", "test": "Co-culture on mupirocin-containing blood agar: growth of mupirocin-resistant mutant colonies", "format": "cell-based, Staphylococcus aureus", "settings": "≈10^9 CFU S. aureus on 0.2 μm filter, blood agar with 8 μg/mL mupirocin, no non-pathogenic microorganism", "protocol": "(§1) A 5 McFarland suspension of Corynebacterium aurimucosum CIP 102616 was prepared as described in Example 2, and 300 μl of this suspension (≈10^7 CFU) were inoculated by swabbing on a 90 mm diameter blood agar plate containing 8 μg/mL of mupirocin; 300 μl of saline was inoculated as “negative control” (mupirocin-containing agar plate not inoculated with C. aurimucosum). Materials and methods were otherwise as described in Example 2, except that ≈10^9 CFU of S. aureus (ATCC 29213 or NCTC 12493) were spread out on the 0.2 μm filter placed on top of the agar plate."}, "S. aureus NCTC 12493 [5]": {"system": "S. aureus NCTC 12493", "test": "Co-culture on mupirocin-containing blood agar: growth of mupirocin-resistant mutant colonies", "format": "cell-based, Staphylococcus aureus", "settings": "≈10^9 CFU S. aureus on 0.2 μm filter, blood agar with 8 μg/mL mupirocin, no non-pathogenic microorganism", "protocol": "as §1"}, "Corynebacterium species [6]": {"system": "Corynebacterium species", "settings": "natural resistance; mupirocin resistance breakpoint >2 μg/mL; cited from earlier work"}, "[7]": {"system": "S. aureus fosfomycin-resistant mutants", "test": "Fosfomycin MIC of bacteria forming colonies on negative-control plates, agar dilution method", "format": "cell-based, Staphylococcus aureus", "protocol": "(§2) A 5 McFarland suspension of Corynebacterium aurimucosum CIP 102616 was prepared from a 48 h-culture on Columbia 5% sheep blood agar at 35+/−2° C., and 300 μl of this suspension (≈10^7 CFU) were inoculated by swabbing on a 90 mm diameter blood agar plate containing 50 μg/mL of fosfomycin; 300 μl of saline was inoculated as “negative control” (fosfomycin-containing agar plate not inoculated with C. aurimucosum). A 10 McFarland suspension of S. aureus (ATCC 29213 or NCTC 12493) was prepared as described in Example 1, and 20 μl drops of this suspension (≈10^7 CFU) were spread out on a 47-mm diameter, 0.2 μm filter placed on top of the agar plate. Plates were incubated at 35+/−2° C., and the growth of fosfomycin-resistant mutants was determined as described in Example 1. Fosfomycin MIC values of bacteria forming fosfomycin-resistant colonies on “negative-control” plates were determined using the agar dilution method."}, "S. aureus NCTC 12493 [8]": {"system": "S. aureus NCTC 12493", "test": "Co-culture on fosfomycin-containing blood agar: growth of fosfomycin-resistant mutant colonies", "format": "cell-based, Staphylococcus aureus", "settings": "≈10^7 CFU S. aureus on 0.2 μm filter, blood agar with 50 μg/mL fosfomycin, no non-pathogenic microorganism", "protocol": "as §2\n(§3) Serial 1/5 dilutions were prepared from a 100 McFarland suspension of C. aurimucosum and 250 μl of each bacterial suspension was inoculated by swabbing on a 90 mm diameter blood agar plate containing 50 μg/mL of fosfomycin, in order to obtain ≈10^9, ≈2×10^8, ≈4×10^7, ≈8×10^6, ≈1.6×10^6, ≈3.2×10^5, ≈6.4×10^4, ≈1.3×10^4, ≈2.5×10^3, ≈5×10^2, ≈10^2, and ≈20 CFU per plate. Materials and methods were otherwise as described in Example 2. […]"}, "Corynebacterium species [9]": {"system": "Corynebacterium species", "settings": "natural resistance; fosfomycin resistance breakpoint >32 μg/mL; cited from earlier work"}, "S. aureus ATCC 29213 [10]": {"system": "S. aureus ATCC 29213", "test": "Co-culture on fosfomycin-containing blood agar: growth of fosfomycin-resistant mutant colonies", "format": "cell-based, Staphylococcus aureus", "settings": "≈10^7 CFU S. aureus on 0.2 μm filter, blood agar with 50 μg/mL fosfomycin, no non-pathogenic microorganism", "protocol": "as §2, §3"}}, "note": "“Also recorded” adds a separate entry of the source."}
{"smiles": "CO[C@H]1/C=C/O[C@@]2(C)Oc3c(C)c(O)c4c(O)c(c(/C=N/N5CCN(C)CC5)c(O)c4c3C2=O)NC(=O)/C(C)=C\\C=C\\[C@H](C)[C@H](O)[C@@H](C)[C@@H](O)[C@@H](C)[C@H](OC(C)=O)[C@@H]1C", "note": "[rifampicin]", "values": [{"measurement": "MIC", "setting": "[1]", "value": "> 256", "unit": "µg/mL"}, {"measurement": "MIC", "setting": "[2]; Staphylococcus aureus, read-out: rifampicin MIC values of colonies on negative-control plates", "value": "≥ 16", "unit": "µg/mL"}, {"measurement": "share of rifampicin-resistant mutants with MIC of 64 μg/mL or higher", "setting": "[2]; agar dilution method", "value": 100, "unit": "%"}, {"measurement": "share of rifampicin-resistant mutants with MIC of 128 μg/mL or higher", "setting": "[2]; agar dilution method", "value": "≈ 75%"}, {"measurement": "share of rifampicin-resistant mutants with MIC of 256 μg/mL or higher", "setting": "[2]; agar dilution method", "value": "≈ 25%"}, {"measurement": "MIC", "setting": "[3]", "value": "> 256", "unit": "µg/mL"}]}
{"smiles": "C/C(=C\\C(=O)OCCCCCCCCC(=O)O)C[C@@H]1OC[C@H](C[C@@H]2O[C@H]2[C@@H](C)[C@H](C)O)[C@@H](O)[C@H]1O", "note": "[mupirocin]", "values": [{"measurement": "mupirocin-resistant mutant colonies, mupirocin alone", "setting": "S. aureus ATCC 29213 [4]", "value": "Colonies of mupirocin-resistant mutants were detected"}, {"measurement": "mupirocin-resistant mutant colonies, mupirocin alone", "setting": "S. aureus NCTC 12493 [5]", "value": "Colonies of mupirocin-resistant mutants were detected"}, {"measurement": "mupirocin MIC values", "setting": "Corynebacterium species [6]", "value": "> 16", "unit": "µg/mL"}]}
{"smiles": "C[C@@H]1O[C@@H]1P(=O)(O)O", "note": "[fosfomycin]", "values": [{"measurement": "MIC", "setting": "[7]; Staphylococcus aureus, read-out: fosfomycin MIC values of colonies on negative-control plates", "value": "≥ 32", "unit": "µg/mL"}, {"measurement": "share of fosfomycin-resistant mutant colonies with MIC of 64 μg/mL or higher", "setting": "[7]; agar dilution method", "value": "≈ 50%"}, {"measurement": "share of fosfomycin-resistant mutant colonies with MIC of 256 μg/mL or higher", "setting": "[7]; agar dilution method", "value": "≈ 30%"}, {"measurement": "fosfomycin-resistant mutant colonies, fosfomycin alone", "setting": "S. aureus NCTC 12493 [8]", "value": "colonies of fosfomycin-resistant mutants were detected; also recorded: Fosfomycin-resistant colonies developed"}, {"measurement": "fosfomycin MIC values", "setting": "Corynebacterium species [9]", "value": "> 256", "unit": "µg/mL"}, {"measurement": "fosfomycin-resistant mutant colonies, fosfomycin alone", "setting": "S. aureus ATCC 29213 [10]", "value": "colonies of fosfomycin-resistant mutants were detected; also recorded: Fosfomycin-resistant colonies developed"}]}
